# Measured values reported in ChEMBL document CHEMBL4507299, “Data for DCP probe PF-04554878” (2021).
# What was measured:
# [1] = biological target: Megakaryocyte-associated tyrosine-protein kinase (Homo sapiens) (UniProt P42679)
# [2] = biological target: Calcium/calmodulin-dependent protein kinase type II subunit beta (Homo sapiens) (UniProt Q13554)
# [3] = biological target: Serine/threonine-protein kinase Nek10 (Homo sapiens) (UniProt Q6ZWH5)
# [4] = biological target: Tyrosine-protein kinase CSK (Homo sapiens) (UniProt P41240)
# Tyrosine-protein kinase CSK (Homo sapiens), sequence (P41240 2-450 limits assumed): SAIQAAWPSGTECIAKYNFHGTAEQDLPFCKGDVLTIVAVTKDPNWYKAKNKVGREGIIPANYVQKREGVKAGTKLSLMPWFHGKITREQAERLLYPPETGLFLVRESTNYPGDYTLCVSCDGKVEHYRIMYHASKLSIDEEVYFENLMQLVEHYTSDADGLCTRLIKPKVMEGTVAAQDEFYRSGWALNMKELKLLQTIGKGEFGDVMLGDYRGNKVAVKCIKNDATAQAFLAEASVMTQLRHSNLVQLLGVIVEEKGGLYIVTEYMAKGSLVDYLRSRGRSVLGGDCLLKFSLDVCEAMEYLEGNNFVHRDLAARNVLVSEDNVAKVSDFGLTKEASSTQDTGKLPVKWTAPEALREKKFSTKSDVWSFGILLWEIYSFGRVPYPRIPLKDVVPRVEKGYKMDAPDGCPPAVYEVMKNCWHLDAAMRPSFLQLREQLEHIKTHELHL
# [5] = biological target: Mitogen-activated protein kinase 1 (Homo sapiens) (UniProt P28482)
# Mitogen-activated protein kinase 1 (Homo sapiens), sequence (P28482 whole entry): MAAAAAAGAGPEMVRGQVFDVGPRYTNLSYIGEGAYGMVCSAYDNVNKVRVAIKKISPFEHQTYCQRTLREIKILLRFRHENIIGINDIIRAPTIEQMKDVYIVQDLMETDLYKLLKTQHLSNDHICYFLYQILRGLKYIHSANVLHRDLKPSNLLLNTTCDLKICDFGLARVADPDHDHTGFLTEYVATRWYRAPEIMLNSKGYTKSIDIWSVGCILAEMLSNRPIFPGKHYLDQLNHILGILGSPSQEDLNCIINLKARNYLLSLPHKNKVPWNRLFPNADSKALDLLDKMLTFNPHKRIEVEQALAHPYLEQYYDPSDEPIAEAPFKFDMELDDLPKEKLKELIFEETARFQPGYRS
# [6] = biological target: Hepatocyte growth factor receptor (Homo sapiens) (UniProt P08581)
# [7] = biological target: T1, Tyrosine-protein kinase JAK3 (Homo sapiens) (UniProt P52333)
# T1 sequence (whole entry): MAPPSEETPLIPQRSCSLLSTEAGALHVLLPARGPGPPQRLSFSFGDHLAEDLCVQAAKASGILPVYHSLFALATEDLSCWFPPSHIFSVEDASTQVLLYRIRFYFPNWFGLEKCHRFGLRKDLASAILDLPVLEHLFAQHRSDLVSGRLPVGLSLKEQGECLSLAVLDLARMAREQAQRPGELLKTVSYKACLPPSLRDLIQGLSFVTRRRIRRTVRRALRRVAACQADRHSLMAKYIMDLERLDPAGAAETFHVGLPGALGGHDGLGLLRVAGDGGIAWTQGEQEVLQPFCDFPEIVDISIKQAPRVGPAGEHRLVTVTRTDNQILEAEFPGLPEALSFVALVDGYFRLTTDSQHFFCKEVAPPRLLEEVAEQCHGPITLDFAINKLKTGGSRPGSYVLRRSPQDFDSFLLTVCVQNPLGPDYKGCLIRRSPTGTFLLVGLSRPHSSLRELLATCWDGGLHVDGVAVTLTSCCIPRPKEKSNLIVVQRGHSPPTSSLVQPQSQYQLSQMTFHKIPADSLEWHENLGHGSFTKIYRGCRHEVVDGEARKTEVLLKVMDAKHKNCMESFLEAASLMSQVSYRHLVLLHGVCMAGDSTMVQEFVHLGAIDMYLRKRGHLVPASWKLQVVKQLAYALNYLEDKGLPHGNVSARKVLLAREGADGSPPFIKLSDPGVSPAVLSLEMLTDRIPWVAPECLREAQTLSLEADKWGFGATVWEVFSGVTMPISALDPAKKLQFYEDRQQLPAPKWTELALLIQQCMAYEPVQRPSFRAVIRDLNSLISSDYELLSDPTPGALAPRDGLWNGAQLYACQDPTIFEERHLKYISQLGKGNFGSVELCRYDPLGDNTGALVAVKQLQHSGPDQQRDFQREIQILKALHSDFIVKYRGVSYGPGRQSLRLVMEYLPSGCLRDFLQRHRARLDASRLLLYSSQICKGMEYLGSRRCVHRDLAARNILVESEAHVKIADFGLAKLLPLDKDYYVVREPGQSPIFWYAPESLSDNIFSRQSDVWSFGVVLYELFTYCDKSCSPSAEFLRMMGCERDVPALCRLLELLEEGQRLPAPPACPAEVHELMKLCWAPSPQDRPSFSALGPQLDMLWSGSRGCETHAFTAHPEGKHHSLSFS
# [8] = biological target: Casein kinase II subunit alpha (Homo sapiens) (UniProt P68400)
# Casein kinase II subunit alpha (Homo sapiens), sequence (P68400 whole entry, looked up): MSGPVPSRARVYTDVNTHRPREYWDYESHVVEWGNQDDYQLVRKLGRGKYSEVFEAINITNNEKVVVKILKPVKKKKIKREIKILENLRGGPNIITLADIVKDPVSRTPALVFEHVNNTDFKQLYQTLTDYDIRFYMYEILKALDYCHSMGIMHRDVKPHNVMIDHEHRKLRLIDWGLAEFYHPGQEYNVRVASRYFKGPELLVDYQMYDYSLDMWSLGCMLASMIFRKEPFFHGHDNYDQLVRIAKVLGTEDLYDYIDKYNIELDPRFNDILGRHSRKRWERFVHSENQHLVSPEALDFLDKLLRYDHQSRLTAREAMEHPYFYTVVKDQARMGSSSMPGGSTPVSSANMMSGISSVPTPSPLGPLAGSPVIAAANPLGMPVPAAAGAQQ
# [9] = biological target: Mitogen-activated protein kinase 10 (Homo sapiens) (UniProt P53779)
# [10] = biological target: Mitogen-activated protein kinase kinase kinase kinase 1 (Homo sapiens) (UniProt Q92918)
# Mitogen-activated protein kinase kinase kinase kinase 1 (Homo sapiens), sequence (Q92918 whole entry, looked up): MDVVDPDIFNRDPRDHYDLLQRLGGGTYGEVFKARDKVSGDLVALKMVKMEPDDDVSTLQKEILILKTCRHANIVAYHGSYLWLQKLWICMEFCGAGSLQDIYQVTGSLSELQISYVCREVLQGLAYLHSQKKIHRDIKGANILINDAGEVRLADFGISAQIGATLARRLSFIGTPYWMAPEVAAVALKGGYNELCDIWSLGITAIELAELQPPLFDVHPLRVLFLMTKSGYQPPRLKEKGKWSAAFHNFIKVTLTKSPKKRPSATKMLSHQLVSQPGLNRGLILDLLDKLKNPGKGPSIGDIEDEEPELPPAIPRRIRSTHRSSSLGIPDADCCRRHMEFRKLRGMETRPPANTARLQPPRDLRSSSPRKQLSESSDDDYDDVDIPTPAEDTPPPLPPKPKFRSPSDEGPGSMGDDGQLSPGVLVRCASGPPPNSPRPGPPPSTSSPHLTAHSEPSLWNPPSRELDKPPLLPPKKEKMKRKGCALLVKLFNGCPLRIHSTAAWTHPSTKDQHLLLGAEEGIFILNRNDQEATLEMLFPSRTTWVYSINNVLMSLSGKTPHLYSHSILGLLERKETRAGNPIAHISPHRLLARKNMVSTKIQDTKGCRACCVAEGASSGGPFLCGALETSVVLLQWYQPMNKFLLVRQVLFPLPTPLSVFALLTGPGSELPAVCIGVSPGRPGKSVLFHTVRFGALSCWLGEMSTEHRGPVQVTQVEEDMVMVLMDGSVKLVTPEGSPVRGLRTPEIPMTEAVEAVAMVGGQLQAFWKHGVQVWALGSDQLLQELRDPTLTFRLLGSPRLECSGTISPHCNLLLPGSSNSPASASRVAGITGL
# [11] = biological target: 5-hydroxytryptamine receptor 5A (Homo sapiens) (UniProt P47898); settings: Compound concentration 10.0 uM
# 5-hydroxytryptamine receptor 5A (Homo sapiens), sequence (P47898 whole entry): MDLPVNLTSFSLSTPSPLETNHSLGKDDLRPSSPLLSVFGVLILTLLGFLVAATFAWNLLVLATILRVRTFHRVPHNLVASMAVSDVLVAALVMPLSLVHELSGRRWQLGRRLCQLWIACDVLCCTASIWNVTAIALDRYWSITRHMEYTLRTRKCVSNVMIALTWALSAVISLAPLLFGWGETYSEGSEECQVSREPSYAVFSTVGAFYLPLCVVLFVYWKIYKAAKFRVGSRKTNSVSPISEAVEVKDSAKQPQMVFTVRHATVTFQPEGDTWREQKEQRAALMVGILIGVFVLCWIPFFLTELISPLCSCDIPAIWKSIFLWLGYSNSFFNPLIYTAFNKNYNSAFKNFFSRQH
# [12] = biological target: Mitogen-activated protein kinase 14 (Homo sapiens) (UniProt Q16539)
# Mitogen-activated protein kinase 14 (Homo sapiens), sequence (Q16539 whole entry): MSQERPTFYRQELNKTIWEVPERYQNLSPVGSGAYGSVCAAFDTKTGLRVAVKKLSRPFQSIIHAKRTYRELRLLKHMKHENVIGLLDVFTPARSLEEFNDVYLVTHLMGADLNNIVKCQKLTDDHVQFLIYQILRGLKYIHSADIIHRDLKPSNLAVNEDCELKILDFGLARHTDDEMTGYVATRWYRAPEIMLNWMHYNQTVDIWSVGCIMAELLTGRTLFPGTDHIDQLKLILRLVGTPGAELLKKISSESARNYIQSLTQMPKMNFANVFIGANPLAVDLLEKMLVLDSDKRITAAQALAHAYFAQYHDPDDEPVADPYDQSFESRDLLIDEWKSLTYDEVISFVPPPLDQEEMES
# [13] = system: Receptor-type tyrosine-protein kinase FLT3 (Homo sapiens), P36888 [N841I]
# [14] = biological target: Serine/threonine-protein kinase NIM1 (Homo sapiens) (UniProt Q8IY84)
# Serine/threonine-protein kinase NIM1 (Homo sapiens), sequence (Q8IY84 whole entry, canonical isoform): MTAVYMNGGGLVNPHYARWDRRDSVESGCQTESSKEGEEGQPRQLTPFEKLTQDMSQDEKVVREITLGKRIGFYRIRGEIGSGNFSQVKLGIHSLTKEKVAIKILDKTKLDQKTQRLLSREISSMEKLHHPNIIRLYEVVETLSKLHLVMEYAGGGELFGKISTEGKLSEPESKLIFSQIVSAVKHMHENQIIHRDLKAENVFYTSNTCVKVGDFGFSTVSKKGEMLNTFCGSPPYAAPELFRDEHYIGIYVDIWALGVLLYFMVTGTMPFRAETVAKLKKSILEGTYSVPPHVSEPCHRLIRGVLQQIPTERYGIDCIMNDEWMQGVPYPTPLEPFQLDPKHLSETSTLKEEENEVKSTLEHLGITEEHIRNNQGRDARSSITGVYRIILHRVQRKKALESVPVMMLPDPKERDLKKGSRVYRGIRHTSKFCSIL
# [15] = biological target: Phosphatidylinositol 4,5-bisphosphate 3-kinase catalytic subunit alpha isoform (Homo sapiens) (UniProt P42336)
# [16] = system: eIF-2-alpha kinase GCN2 (Homo sapiens), Q9P2K8 [S808G]
# [17] = biological target: Tyrosine-protein kinase ZAP-70 (Homo sapiens) (UniProt P43403)
# [18] = biological target: Tyrosine-protein kinase Lyn (Homo sapiens, UniProt P07948)
# [19] = biological target: T2, Inhibitor of nuclear factor kappa-B kinase subunit epsilon (Homo sapiens) (UniProt Q14164)
# T2 sequence (whole entry): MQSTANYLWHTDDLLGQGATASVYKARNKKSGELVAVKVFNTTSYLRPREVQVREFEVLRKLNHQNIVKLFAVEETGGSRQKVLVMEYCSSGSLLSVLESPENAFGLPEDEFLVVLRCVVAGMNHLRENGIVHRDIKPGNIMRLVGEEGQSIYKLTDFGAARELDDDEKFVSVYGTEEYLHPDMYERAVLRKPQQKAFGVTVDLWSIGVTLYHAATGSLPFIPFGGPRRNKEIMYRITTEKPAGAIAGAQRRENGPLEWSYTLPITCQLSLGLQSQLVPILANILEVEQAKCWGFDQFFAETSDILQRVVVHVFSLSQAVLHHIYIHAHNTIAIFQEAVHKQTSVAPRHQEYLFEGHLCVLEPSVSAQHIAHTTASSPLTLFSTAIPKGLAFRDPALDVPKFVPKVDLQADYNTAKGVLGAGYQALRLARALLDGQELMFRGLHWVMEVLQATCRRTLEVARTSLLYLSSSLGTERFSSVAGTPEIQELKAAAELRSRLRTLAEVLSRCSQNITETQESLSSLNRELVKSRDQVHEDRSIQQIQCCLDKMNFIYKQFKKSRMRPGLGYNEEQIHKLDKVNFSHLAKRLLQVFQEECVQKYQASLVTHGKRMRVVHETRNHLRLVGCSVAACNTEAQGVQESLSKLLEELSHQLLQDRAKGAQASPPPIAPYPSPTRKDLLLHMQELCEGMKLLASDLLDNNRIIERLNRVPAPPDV
# [20] = biological target: cAMP-dependent protein kinase catalytic subunit PRKX (Homo sapiens) (UniProt P51817)
# cAMP-dependent protein kinase catalytic subunit PRKX (Homo sapiens), sequence (P51817 whole entry): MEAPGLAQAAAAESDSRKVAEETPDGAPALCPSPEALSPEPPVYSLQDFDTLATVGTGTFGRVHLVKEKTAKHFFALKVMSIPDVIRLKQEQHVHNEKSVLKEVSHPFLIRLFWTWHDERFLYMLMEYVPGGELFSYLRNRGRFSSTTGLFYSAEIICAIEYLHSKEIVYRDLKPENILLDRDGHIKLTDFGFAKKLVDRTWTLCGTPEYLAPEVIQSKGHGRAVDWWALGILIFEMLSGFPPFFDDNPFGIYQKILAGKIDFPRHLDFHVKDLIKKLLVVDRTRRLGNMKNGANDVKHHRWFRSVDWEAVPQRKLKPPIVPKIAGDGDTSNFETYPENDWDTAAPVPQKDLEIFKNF
# [21] = Compound concentration 100.0 nM
# [22] = Compound concentration 1000.0 nM
# Megakaryocyte-associated tyrosine-protein kinase (Homo sapiens), sequence (P42679 whole entry): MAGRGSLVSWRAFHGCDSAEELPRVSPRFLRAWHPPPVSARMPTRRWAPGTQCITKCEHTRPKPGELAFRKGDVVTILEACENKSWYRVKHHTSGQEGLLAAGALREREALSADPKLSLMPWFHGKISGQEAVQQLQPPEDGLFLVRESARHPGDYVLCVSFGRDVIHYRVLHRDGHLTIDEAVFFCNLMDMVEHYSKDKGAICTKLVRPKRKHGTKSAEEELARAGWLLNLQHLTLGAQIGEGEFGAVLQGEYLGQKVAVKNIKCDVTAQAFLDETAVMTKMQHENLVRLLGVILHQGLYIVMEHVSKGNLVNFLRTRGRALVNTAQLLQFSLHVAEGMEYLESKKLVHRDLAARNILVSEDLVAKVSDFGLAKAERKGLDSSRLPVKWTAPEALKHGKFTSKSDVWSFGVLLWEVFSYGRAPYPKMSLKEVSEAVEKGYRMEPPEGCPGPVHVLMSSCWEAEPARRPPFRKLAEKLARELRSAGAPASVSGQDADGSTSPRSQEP
# Calcium/calmodulin-dependent protein kinase type II subunit beta (Homo sapiens), sequence (Q13554 whole entry): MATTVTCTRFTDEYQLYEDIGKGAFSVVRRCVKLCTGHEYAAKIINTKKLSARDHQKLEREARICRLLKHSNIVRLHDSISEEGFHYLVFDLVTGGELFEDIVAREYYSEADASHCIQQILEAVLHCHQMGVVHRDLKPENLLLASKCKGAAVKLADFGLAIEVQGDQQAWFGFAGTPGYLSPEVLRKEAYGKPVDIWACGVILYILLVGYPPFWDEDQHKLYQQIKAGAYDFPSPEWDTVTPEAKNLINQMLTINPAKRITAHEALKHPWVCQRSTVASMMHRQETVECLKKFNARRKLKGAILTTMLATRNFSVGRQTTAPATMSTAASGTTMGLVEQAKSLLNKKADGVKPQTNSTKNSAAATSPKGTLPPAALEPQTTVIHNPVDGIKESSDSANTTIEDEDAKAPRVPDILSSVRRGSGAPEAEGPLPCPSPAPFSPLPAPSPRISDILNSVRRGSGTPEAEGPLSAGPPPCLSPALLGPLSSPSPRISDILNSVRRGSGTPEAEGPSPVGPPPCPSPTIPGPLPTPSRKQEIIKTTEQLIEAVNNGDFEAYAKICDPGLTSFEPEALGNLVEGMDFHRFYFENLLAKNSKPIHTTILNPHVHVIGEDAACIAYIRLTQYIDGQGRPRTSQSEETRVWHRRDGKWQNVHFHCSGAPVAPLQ
smiles,measurement,setting,value
CNC(=O)c1ccc(Nc2ncc(C(F)(F)F)c(NCc3nccnc3N(C)S(C)(=O)=O)n2)cc1 [DEFACTINIB],residual activity,[1]; [21],37%
same,residual activity,[2]; [21],86%
same,residual activity,[3]; [21],100%
same,residual activity,[4]; [21],100%
same,residual activity,[5]; [21],76%
same,residual activity,[6]; [21],66%
same,residual activity,[7]; [21],8.2%
same,residual activity,[8]; [21],61%
same,residual activity,[9]; [21],100%
same,residual activity,[10]; [21],18%
same,inhibition,[11],-1.91%
same,residual activity,[12]; [21],100%
same,residual activity,[13]; [21],0%
same,residual activity,[14]; [21],100%
same,residual activity,[15]; [21],100%
same,residual activity,[16]; [21],27%
same,residual activity,[17]; [21],100%
same,residual activity,[18]; [21],85%
same,residual activity,[19]; [21],99%
same,residual activity,[20]; [21],95%
CN(c1ccnc(CNc2nc(Nc3ccc4c(c3)CC(=O)N4)ncc2C(F)(F)F)n1)S(C)(=O)=O [PF-00911705],residual activity,[1]; [22],65%
same,residual activity,[2]; [22],86%
same,residual activity,[3]; [22],90%
same,residual activity,[4]; [22],74%
same,residual activity,[5]; [22],70%
same,residual activity,[6]; [22],14%
same,residual activity,[7]; [22],1.9%
same,residual activity,[8]; [22],26%
same,residual activity,[9]; [22],56%
same,residual activity,[10]; [22],33%
same,inhibition,[11],1.82%
same,residual activity,[12]; [22],92%
same,residual activity,[13]; [22],0%
same,residual activity,[14]; [22],9.5%
same,residual activity,[15]; [22],100%
same,residual activity,[16]; [22],6.7%
same,residual activity,[17]; [22],61%
same,residual activity,[18]; [22],80%
same,residual activity,[19]; [22],18%
same,residual activity,[20]; [22],15%
